Measurements taken from patent US11458123B2 (Arvinas, Inc., priority 2016, dated 2022).

What follows are compounds tested on tau protein (assay: Tau protein in vitro degradation assay (Western blot, Tau-13 antibody)). Conditions: SK-N-SH cells; 72 hours of incubation; tested at 300 nM, 100 nM, 33 nM and 11 nM; Western blot, Tau-13 antibody.
Format: cell-based, human
How it was run: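 SK-N-SH cells, seeded ≥18 h beforehand, were incubated 72 h with tau PROTACs at 1000, 300 and 100 nM or at 300, 100, 33 and 11 nM. Lysates in protease-inhibitor buffer were resolved by SDS-PAGE; tau quantified by Western blot with Tau-13 antibody recognising all human tau forms.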

Q: Which “Degradation activity (tau protein remaining; highest amount of degradation observed at any dosage)” value does the source give for `Cn1c2ccncc2c2ccc(-c3ccc(O[C@H]4C[C@H](OC5CCN(c6cccc(CCCOc7ccc8c(c7)C(=O)N(C7CCC(=O)NC7=O)C8=O)c6)CC5)C4)nc3)cc21` (stereo partly drawn) [Compound 205, 2-(2,6-dioxopiperidin-3-yl)-5-(3-(3-(4-((1r,3r)-3-((5-(5-methyl-5H-pyrido[4,3-b]indol-7-yl)pyridin-2-yl)oxy)cyclobutoxy)piperidin-1-yl)phenyl)propoxy)isoindoline-1,3-dione] here?
A: A (≤50% tau protein remaining after 72 hours of incubation with the test compound)

Q: For `Cn1c2ccncc2c2ccc(-c3ccc(O[C@H]4C[C@H](OCCOCCOCCOCC5CN(c6ccc7c(c6)C(=O)N(C6CCC(=O)NC6=O)C7=O)C5)C4)nc3)cc21` (stereo partly drawn) [Compound 206, 2-(2,6-dioxopiperidin-3-yl)-5-(3-((2-(2-(2-((1r,3r)-3-((5-(5-methyl-5H-pyrido[4,3-b]indol-7-yl)pyridin-2-yl)oxy)cyclobutoxy)ethoxy)ethoxy)ethoxy)methyl)azetidin-1-yl)isoindoline-1,3-dione], which “Degradation activity (tau protein remaining; highest amount of degradation observed at any dosage)” value is on record?
A: B (≤80% and >50% tau protein remaining after 72 hours of incubation with the test compound)

Q: How did the “Degradation activity (tau protein remaining; highest amount of degradation observed at any dosage)” value turn out when `O=C1CCC(N2C(=O)c3ccc(OCCOCCOCCOCCOCCOc4ccc(-c5ccn6c(n5)nc5ccccc56)cn4)cc3C2=O)C(=O)N1` (stereo not drawn) [Compound 207, 5-((14-((5-(benzo[4,5]imidazo[1,2-a]pyrimidin-2-yl)pyridin-2-yl)oxy)-3,6,9,12-tetraoxatetradecyl)oxy)-2-(2,6-dioxopiperidin-3-yl)isoindoline-1,3-dione] was run?
A: B (≤80% and >50% tau protein remaining after 72 hours of incubation with the test compound)

Q: Which “Degradation activity (tau protein remaining; highest amount of degradation observed at any dosage)” value does the source give for `Cn1c2ccncc2c2ccc(-c3ccc(N4CC(OCCOCCOCCOCCOc5ccc6c(c5)C(=O)N(C5CCC(=O)NC5=O)C6=O)C4)nc3)cc21` (stereo not drawn) [Compound 208, 2-(2,6-dioxopiperidin-3-yl)-5-(2-(2-(2-(2-((1-(5-(5-methyl-5H-pyrido[4,3-b]indol-7-yl)pyridin-2-yl)azetidin-3-yl)oxy)ethoxy)ethoxy)ethoxy)ethoxy)isoindoline-1,3-dione] here?
A: A (≤50% tau protein remaining after 72 hours of incubation with the test compound)

Q: With `Cn1c2ccncc2c2ccc(-c3ccc(O[C@H]4C[C@H](OCC56CC(COCCOCCOc7ccc8c(c7)C(=O)N(C7CCC(=O)NC7=O)C8=O)(C5)C6)C4)nc3)cc21` (stereo partly drawn) [Compound 209, 2-(2,6-dioxopiperidin-3-yl)-5-(2-(2-((3-(((1r,3r)-3-((5-(5-methyl-5H-pyrido[4,3-b]indol-7-yl)pyridin-2-yl)oxy)cyclobutoxy)methyl)bicyclo[1.1.1]pentan-1-yl)methoxy)ethoxy)ethoxy)isoindoline-1,3-dione] as the compound, how does the “Degradation activity (tau protein remaining; highest amount of degradation observed at any dosage)” value read?
A: A (≤50% tau protein remaining after 72 hours of incubation with the test compound)

Q: Which “Degradation activity (tau protein remaining; highest amount of degradation observed at any dosage)” value does the source give for `Cn1c2ccncc2c2ccc(N3CCN(CCCOCCOCCOCCOCCOc4ccc5c(c4)C(=O)N(C4CCC(=O)NC4=O)C5=O)CC3)cc21` (stereo not drawn) [Compound 210, 2-(2,6-dioxopiperidin-3-yl)-5-((15-(4-(5-methyl-5H-pyrido[4,3-b]indol-7-yl)piperazin-1-yl)-3,6,9,12-tetraoxapentadecyl)oxy)isoindoline-1,3-dione] here?
A: C (>80% tau protein remaining after 72 hours of incubation with the test compound)

Q: Which “Degradation activity (tau protein remaining; highest amount of degradation observed at any dosage)” value does the source give for `Cn1c2ccncc2c2ccc(-c3ccc(OC4CC5(C4)CN(CCOCCCOC4CN(c6ccc7c(c6)C(=O)N(C6CCC(=O)NC6=O)C7=O)C4)C5)nc3)cc21` (stereo not drawn) [Compound 211, 2-(2,6-dioxopiperidin-3-yl)-5-(3-(3-(2-(6-((5-(5-methyl-5H-pyrido[4,3-b]indol-7-yl)pyridin-2-yl)oxy)-2-azaspiro[3.3]heptan-2-yl)ethoxy)propoxy)azetidin-1-yl)isoindoline-1,3-dione] here?
A: C (>80% tau protein remaining after 72 hours of incubation with the test compound)

Q: For `Cn1c2ccncc2c2ccc(-c3ccc(O[C@H]4C[C@H](OCC#CCOCCOC5CN(c6ccc7c(c6)C(=O)N(C6CCC(=O)NC6=O)C7=O)C5)C4)nc3)cc21` (stereo partly drawn) [Compound 212, 2-(2,6-dioxopiperidin-3-yl)-5-(3-(2-((4-((1r,3r)-3-((5-(5-methyl-5H-pyrido[4,3-b]indol-7-yl)pyridin-2-yl)oxy)cyclobutoxy)but-2-yn-1-yl)oxy)ethoxy)azetidin-1-yl)isoindoline-1,3-dione], which “Degradation activity (tau protein remaining; highest amount of degradation observed at any dosage)” value is on record?
A: A (≤50% tau protein remaining after 72 hours of incubation with the test compound)

Q: For `Cn1c2ccncc2c2ccc(-c3ccc(O[C@H]4C[C@H](OCCOCCOC5CC6(C5)CN(c5ccc7c(c5)C(=O)N(C5CCC(=O)NC5=O)C7=O)C6)C4)nc3)cc21` (stereo partly drawn) [Compound 213, 2-(2,6-dioxopiperidin-3-yl)-5-(6-(2-(2-((1r,3r)-3-((5-(5-methyl-5H-pyrido[4,3-b]indol-7-yl)pyridin-2-yl)oxy)cyclobutoxy)ethoxy)ethoxy)-2-azaspiro[3.3]heptan-2-yl)isoindoline-1,3-dione], which “Degradation activity (tau protein remaining; highest amount of degradation observed at any dosage)” value is on record?
A: C (>80% tau protein remaining after 72 hours of incubation with the test compound)
